According to patent US20260001928A1 (CORTERIA PHARMACEUTICALS, priority 2022, published 2026):
*1 amine or outer side, *2 acyl side, *3 side chain or, on linkers, in order; H or OH if unused. Where a SMILES comes first, the peptide text is derived from it. Side-chain parts run from the residue outwards. [ ]: non-standard residue; d: D form. The star is where a group is joined. C18 diacid = O=C(O)CCCCCCCCCCCCCCCCC(=O)*; γGlu = O=C(O)[C@H](CCC(=O)[*:2])N[*:1]; NMeI = CC[C@H](C)[C@H](NC)C(=O)O; αMeL = CC(C)C[C@](C)(N)C(=O)O; Abu = CC[C@H](N)C(=O)O; Dap = NC[C@H](N)C(=O)O; AEEA = NCCOCCOCC(=O)O

Columns and labels:
[1] = target: T1, CFR1R receptor (Homo sapiens, UniProt P34998); test: Activity at anti-target CFR1R receptor, cAMP assay in CRF1R-overexpression CHO-K1 cells; assay type: cell-based; details: 100% = Sauvagine at 100 nM; for EC50: cAMP
T1 construct: host or cells: CHO-K1 (clone 2)
T1 sequence (P34998 24-415): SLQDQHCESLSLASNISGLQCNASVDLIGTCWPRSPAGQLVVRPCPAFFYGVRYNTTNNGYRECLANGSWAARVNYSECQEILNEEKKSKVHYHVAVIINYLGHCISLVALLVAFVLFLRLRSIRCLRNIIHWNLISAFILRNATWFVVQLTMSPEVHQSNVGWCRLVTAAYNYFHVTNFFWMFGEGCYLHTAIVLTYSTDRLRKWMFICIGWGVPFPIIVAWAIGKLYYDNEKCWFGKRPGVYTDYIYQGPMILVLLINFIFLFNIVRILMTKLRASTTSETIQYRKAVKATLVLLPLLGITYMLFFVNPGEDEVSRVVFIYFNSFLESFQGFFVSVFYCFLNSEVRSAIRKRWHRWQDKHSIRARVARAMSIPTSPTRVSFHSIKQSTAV
Method in brief: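 Clone 2; cryopreserved stocks (10% DMSO); 4000 cells/well final; 100% activation = Sauvagine 100 nM; otherwise as TeloHAEC protocol.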

[2] = target: T2, human CRF2a receptor (Homo sapiens, UniProt Q13324); test: Activity at human CRF2a receptor, cAMP functional assay in TeloHEAC cells; assay type: cell-based; details: TeloHEAC cells stably expressing human CRF2a receptor, relative to urocortin 2 (100 nM = 100%)
T2 construct: expressed in transfected cells; host or cells: TeloHEAC cells
T2 sequence (Q13324 1-411): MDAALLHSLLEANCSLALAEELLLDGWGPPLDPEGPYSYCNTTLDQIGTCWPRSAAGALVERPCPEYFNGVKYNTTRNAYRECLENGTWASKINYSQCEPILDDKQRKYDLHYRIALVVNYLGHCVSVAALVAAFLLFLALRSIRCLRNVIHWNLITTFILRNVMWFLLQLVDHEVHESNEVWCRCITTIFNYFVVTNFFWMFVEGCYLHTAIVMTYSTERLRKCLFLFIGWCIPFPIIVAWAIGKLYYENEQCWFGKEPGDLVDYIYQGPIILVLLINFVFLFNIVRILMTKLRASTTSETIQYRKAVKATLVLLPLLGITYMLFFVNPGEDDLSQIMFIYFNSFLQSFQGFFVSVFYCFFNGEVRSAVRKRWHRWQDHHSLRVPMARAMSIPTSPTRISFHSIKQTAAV
Method in brief: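 cAMP accumulation was measured by HTRF 665/620 nm ratio after 30 min at 37° C compound exposure (16 twofold dilutions) of CRF2a-expressing TeloHEAC cells, 10000/well, in HEPES-buffered HBSS plus IBMX. Activity was normalised to urocortin 2 at 100 nM (100%), and EC50 was the concentration giving half-maximal activation.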

Row | SMILES | Emax (% I) [1] [% I] | EC50 [1] [nM] | EC50 [2] [nM]
1 | CC[C@H](C)[C@H](NC)C(=O)N[C@H](C(=O)N[C@@H](CC(C)C)C(=O)N[C@@H](CO)C(=O)N[C@@H](CC(C)C)C(=O)N[C@@H](CC(=O)O)C(=O)N[C@@H](C(=O)N1CCC[C@H]1C(=O)N[C@H](C(=O)N[C@@H](CCCCN)C(=O)N[C@@H](CC(C)C)C(=O)N[C@@H](CCCCNC(=O)COCCOCCNC(=O)COCCOCCNC(=O)CC[C@H](NC(=O)CCCCCCCCCCCCCCCCC(=O)O)C(=O)O)C(=O)N[C@@H](CCCCN)C(=O)N[C@H](C(=O)N[C@@H](CC(C)C)C(=O)N[C@@H](CC(C)C)C(=O)N[C@@H](CCC(=O)O)C(=O)N[C@@H](CCC(N)=O)C(=O)N[C@@H](CCC(=O)O)C(=O)N[C@@H](CCCCN)C(=O)N[C@@H](CCC(N)=O)C(=O)N[C@@H](CCCCN)C(=O)N[C@@H](CCCCN)C(=O)N[C@@H](CCC(N)=O)C(=O)N[C@@H](CCCNC(=N)N)C(=O)N[C@@H](CCC(=O)O)C(=O)N[C@@H](CCC(N)=O)C(=O)N[C@@H](C)C(=O)N[C@@H](CCC(=O)O)C(=O)N[C@H](C(=O)N[C@@H](CC(N)=O)C(=O)N[C@@H](CN)C(=O)N[C@@H](CCC(N)=O)C(=O)N[C@H](C(=O)N[C@@H](CC(C)C)C(=O)N[C@@H](C)C(=O)N[C@@H](CCC(N)=O)C(=O)N[C@H](C(N)=O)C(C)C)[C@@H](C)CC)[C@@H](C)O)[C@@H](C)CC)[C@@H](C)CC)C(C)C)C(C)C [compound 115] (H-[NMeI]VLSLD[dV]PIKLK([AEEA-AEEA-γGlu-C18 diacid])KILLEQEKQKKQREQAETN[Dap]QILAQV-NH2) | 4 | > 250 | 0.76
2 | CC[C@H](C)[C@H](NC)C(=O)N[C@H](C(=O)N[C@@H](CC(C)C)C(=O)N[C@@H](CO)C(=O)N[C@@H](CC(C)C)C(=O)N[C@@H](CC(=O)O)C(=O)N[C@@H](C(=O)N1CCC[C@H]1C(=O)N[C@H](C(=O)N[C@@H](CCCCN)C(=O)N[C@@H](CC(C)C)C(=O)N[C@@H](CCCCNC(=O)COCCOCCNC(=O)COCCOCCNC(=O)CC[C@H](NC(=O)CCCCCCCCCCCCCCCCC(=O)O)C(=O)O)C(=O)N[C@@H](CCCCN)C(=O)N[C@H](C(=O)N[C@@H](CC(C)C)C(=O)N[C@@H](CC(C)C)C(=O)N[C@@H](CCC(=O)O)C(=O)N[C@@H](CCC(N)=O)C(=O)N[C@@H](CCC(=O)O)C(=O)N[C@@H](CCCCN)C(=O)N[C@@H](CCC(N)=O)C(=O)N[C@@H](CCCCN)C(=O)N[C@@H](CCCCN)C(=O)N[C@@H](CCC(N)=O)C(=O)N[C@@H](CCCNC(=N)N)C(=O)N[C@@H](CCC(=O)O)C(=O)N[C@@H](CCC(N)=O)C(=O)N[C@@H](C)C(=O)N[C@@H](CCC(=O)O)C(=O)N[C@H](C(=O)N[C@@H](CC(N)=O)C(=O)N[C@@H](CCC(=O)O)C(=O)N[C@@H](CCC(N)=O)C(=O)N[C@H](C(=O)N[C@@H](CC(C)C)C(=O)N[C@@H](C)C(=O)N[C@@H](CCC(N)=O)C(=O)N[C@H](C(N)=O)C(C)C)[C@@H](C)CC)[C@@H](C)O)[C@@H](C)CC)[C@@H](C)CC)C(C)C)C(C)C [compound 116] (H-[NMeI]VLSLD[dV]PIKLK([AEEA-AEEA-γGlu-C18 diacid])KILLEQEKQKKQREQAETNEQILAQV-NH2) | 0 | > 250 | 0.37

The next lines start with the values.

Row | Emax (% I) [1] [% I] | EC50 [1] [nM] | EC50 [2] [nM] | SMILES
3 | −3 | > 250 | 2.58 | CC[C@H](C)[C@H](NC(C)=O)C(=O)N[C@H](C(=O)N[C@@H](CC(C)C)C(=O)N[C@@H](CO)C(=O)N[C@@H](CC(C)C)C(=O)N[C@@H](CC(=O)O)C(=O)N[C@@H](C(=O)N1CCC[C@H]1C(=O)N[C@H](C(=O)N[C@@H](CCCCN)C(=O)N[C@@](C)(CC(C)C)C(=O)N[C@@H](CCCCNC(=O)COCCOCCNC(=O)COCCOCCNC(=O)CC[C@H](NC(=O)CCCCCCCCCCCCCCCCC(=O)O)C(=O)O)C(=O)N[C@@H](CCCCN)C(=O)N[C@H](C(=O)N[C@@H](CC(C)C)C(=O)N[C@@H](CC(C)C)C(=O)N[C@@H](CCC(=O)O)C(=O)N[C@@H](CCC(N)=O)C(=O)N[C@@H](CCC(=O)O)C(=O)N[C@@H](CCCCN)C(=O)N[C@@H](CCC(N)=O)C(=O)N[C@@H](CCCCN)C(=O)N[C@@H](CCCCN)C(=O)N[C@@H](CCC(N)=O)C(=O)N[C@@H](CCCNC(=N)N)C(=O)N[C@@H](CCC(=O)O)C(=O)N[C@@H](CCC(N)=O)C(=O)N[C@@H](C)C(=O)N[C@@H](CCC(=O)O)C(=O)N[C@H](C(=O)N[C@@H](CC(N)=O)C(=O)N[C@H](C(=O)N[C@@H](CCC(N)=O)C(=O)N[C@H](C(=O)N[C@@H](CC(C)C)C(=O)N[C@@H](C)C(=O)N[C@@H](CCC(N)=O)C(=O)N[C@H](C(N)=O)C(C)C)[C@@H](C)CC)C(C)C)[C@@H](C)O)[C@@H](C)CC)[C@@H](C)CC)C(C)C)C(C)C [compound 111] (Ac-IVLSLD[dV]PIK[αMeL]K([AEEA-AEEA-γGlu-C18 diacid])KILLEQEKQKKQREQAETNVQILAQV-NH2)
4 | 3 | > 250 | 0.28 | CC[C@H](C)[C@H](NC(C)=O)C(=O)N[C@H](C(=O)N[C@@H](CC(C)C)C(=O)N[C@@H](CO)C(=O)N[C@@H](CC(C)C)C(=O)N[C@@H](CC(=O)O)C(=O)N[C@@H](C(=O)N1CCC[C@H]1C(=O)N[C@H](C(=O)N[C@@H](CCCCN)C(=O)N[C@@](C)(CC(C)C)C(=O)N[C@@H](CCCCNC(=O)COCCOCCNC(=O)COCCOCCNC(=O)CC[C@H](NC(=O)CCCCCCCCCCCCCCCCC(=O)O)C(=O)O)C(=O)N[C@@H](CCCCN)C(=O)N[C@H](C(=O)N[C@@H](CC(C)C)C(=O)N[C@@H](CC(C)C)C(=O)N[C@@H](CCC(=O)O)C(=O)N[C@@H](CCC(N)=O)C(=O)N[C@@H](CCC(=O)O)C(=O)N[C@@H](CCCCN)C(=O)N[C@@H](CCC(N)=O)C(=O)N[C@@H](CCCCN)C(=O)N[C@@H](CCCCN)C(=O)N[C@@H](CCC(N)=O)C(=O)N[C@@H](CCCNC(=N)N)C(=O)N[C@@H](CCC(=O)O)C(=O)N[C@@H](CCC(N)=O)C(=O)N[C@@H](C)C(=O)N[C@@H](CCC(=O)O)C(=O)N[C@H](C(=O)N[C@@H](CC(N)=O)C(=O)N[C@@H](C)C(=O)N[C@@H](CCC(N)=O)C(=O)N[C@H](C(=O)N[C@@H](CC(C)C)C(=O)N[C@@H](C)C(=O)N[C@@H](CCC(N)=O)C(=O)N[C@H](C(N)=O)C(C)C)[C@@H](C)CC)[C@@H](C)O)[C@@H](C)CC)[C@@H](C)CC)C(C)C)C(C)C [compound 112] (Ac-IVLSLD[dV]PIK[αMeL]K([AEEA-AEEA-γGlu-C18 diacid])KILLEQEKQKKQREQAETNAQILAQV-NH2)
5 | 6 | > 250 | 0.18 | CC[C@H](NC(=O)[C@H](CC(N)=O)NC(=O)[C@@H](NC(=O)[C@H](CCC(=O)O)NC(=O)[C@H](C)NC(=O)[C@H](CCC(N)=O)NC(=O)[C@H](CCC(=O)O)NC(=O)[C@H](CCCNC(=N)N)NC(=O)[C@H](CCC(N)=O)NC(=O)[C@H](CCCCN)NC(=O)[C@H](CCCCN)NC(=O)[C@H](CCC(N)=O)NC(=O)[C@H](CCCCN)NC(=O)[C@H](CCC(=O)O)NC(=O)[C@H](CCC(N)=O)NC(=O)[C@H](CCC(=O)O)NC(=O)[C@H](CC(C)C)NC(=O)[C@H](CC(C)C)NC(=O)[C@@H](NC(=O)[C@H](CCCCN)NC(=O)[C@H](CCCCNC(=O)COCCOCCNC(=O)COCCOCCNC(=O)CC[C@H](NC(=O)CCCCCCCCCCCCCCCCC(=O)O)C(=O)O)NC(=O)[C@H](CC(C)C)NC(=O)[C@H](CCCCN)NC(=O)[C@@H](NC(=O)[C@@H]1CCCN1C(=O)[C@H](NC(=O)[C@H](CC(=O)O)NC(=O)[C@H](CC(C)C)NC(=O)[C@H](CO)NC(=O)[C@H](CC(C)C)NC(=O)[C@@H](NC(=O)[C@@H](NC)[C@@H](C)CC)C(C)C)C(C)C)[C@@H](C)CC)[C@@H](C)CC)[C@@H](C)O)C(=O)N[C@@H](CCC(N)=O)C(=O)N[C@H](C(=O)N[C@@H](CC(C)C)C(=O)N[C@@H](C)C(=O)N[C@@H](CCC(N)=O)C(=O)N[C@H](C(N)=O)C(C)C)[C@@H](C)CC [compound 114] (H-[NMeI]VLSLD[dV]PIKLK([AEEA-AEEA-γGlu-C18 diacid])KILLEQEKQKKQREQAETN[Abu]QILAQV-NH2)
